In patent US6291482A, “N-hydroxyurea derivative and pharmaceutical composition containing the same” (Nikken Chemicals Co., LTD, priority 1997, dated 2001):
Counter-ions that a name gives are not always drawn.

Tests used:
5-lipoxygenase = molecular target: T1, 5-lipoxygenase (Rattus norvegicus, UniProt P12527); test: Lipoxygenase inhibitory activity ex vivo (leukotriene B4 in blood after oral administration); conditions: 1 h, SD male rats, one hour before blood sampling, read-out: LTBI ED50 (50% inhibitory amount)
T1 construct: from tissue; host or cells: whole blood of male SD rats
T1 sequence (P12527 1-673): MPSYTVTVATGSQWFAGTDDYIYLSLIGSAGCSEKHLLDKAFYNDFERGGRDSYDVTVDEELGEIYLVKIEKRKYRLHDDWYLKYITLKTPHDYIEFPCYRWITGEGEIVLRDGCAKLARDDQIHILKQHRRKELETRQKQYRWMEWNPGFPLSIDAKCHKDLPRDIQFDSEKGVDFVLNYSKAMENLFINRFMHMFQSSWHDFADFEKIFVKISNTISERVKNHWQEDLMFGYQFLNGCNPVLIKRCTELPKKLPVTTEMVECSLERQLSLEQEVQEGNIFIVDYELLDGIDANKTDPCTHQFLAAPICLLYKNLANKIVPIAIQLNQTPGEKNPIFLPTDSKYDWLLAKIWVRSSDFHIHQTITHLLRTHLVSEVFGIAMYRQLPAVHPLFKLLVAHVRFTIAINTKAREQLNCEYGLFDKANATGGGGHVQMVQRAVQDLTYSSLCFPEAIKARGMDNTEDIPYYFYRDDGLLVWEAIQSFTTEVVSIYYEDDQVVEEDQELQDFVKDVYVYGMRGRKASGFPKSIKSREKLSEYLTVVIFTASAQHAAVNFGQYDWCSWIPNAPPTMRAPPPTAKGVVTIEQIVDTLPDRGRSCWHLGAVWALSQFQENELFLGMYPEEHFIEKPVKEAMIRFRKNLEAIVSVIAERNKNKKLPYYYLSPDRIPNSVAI
Source text: (§1) (Measurement of Lipoxygenase Inhibitory Activity and Thromboxane Synthase Inhibitory Activity in Ex Vivo)
(§2) For the test animals, SD male rats were used. These were made to fast from the day before the test. The test drug was suspended in 0.5% sodium carboxymethylcellulose and orally administered one hour before the blood was taken. The blood was taken from the abdominal aorta and divided for the measurement of the thromboxane synthase inhibitory activity and the 5-lipoxygenase inhibitory activity.
The 5-lipoxygenase activity was shown using as an indicator the amount of production of leukotriene B4. 50 μM calcium ionophor (A-23187) was added to the divided blood to start the reaction (37° C., 30 minutes), and 1 mM Indomethacin, 1 mM Phenidone, and 0.1 mM EGTA were added to stop the reaction. The plasma was centrifuged (3000 rpm, 20 minutes, 4° C.) and the leukotriene B4 in the plasma was measured by the EIA method.

thromboxane synthase [1] = molecular target: T2, thromboxane synthase (Rattus norvegicus, UniProt P49430); test: Thromboxane synthase inhibitory activity ex vivo (thromboxane B2 in serum after oral administration); conditions: 1 h, SD male rats, one hour before blood sampling, read-out: TxSI ED50 (50% inhibitory amount)
T2 construct: The divided blood was allowed to naturally coagulate; from tissue; host or cells: whole blood of male SD rats, allowed to clot
T2 sequence (P49430 1-533): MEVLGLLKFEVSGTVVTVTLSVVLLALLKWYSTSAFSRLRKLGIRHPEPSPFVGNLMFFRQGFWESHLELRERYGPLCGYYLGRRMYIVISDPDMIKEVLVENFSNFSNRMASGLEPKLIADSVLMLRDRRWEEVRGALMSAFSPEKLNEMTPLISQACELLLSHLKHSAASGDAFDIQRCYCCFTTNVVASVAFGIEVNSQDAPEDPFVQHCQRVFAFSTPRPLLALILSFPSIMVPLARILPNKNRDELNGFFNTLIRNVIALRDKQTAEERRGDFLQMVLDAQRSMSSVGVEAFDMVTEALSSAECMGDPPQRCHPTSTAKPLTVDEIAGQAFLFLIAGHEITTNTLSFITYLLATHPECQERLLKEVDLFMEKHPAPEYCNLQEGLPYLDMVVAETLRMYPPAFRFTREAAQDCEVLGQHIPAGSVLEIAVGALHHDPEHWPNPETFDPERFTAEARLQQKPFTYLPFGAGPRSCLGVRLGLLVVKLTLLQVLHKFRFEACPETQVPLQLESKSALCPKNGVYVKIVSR
Source text: as §1, §2
On the other hand, the thromboxane synthase activity was shown using as an indicator the amount of production of the thromboxane A2 stable metabolite thromboxane B2. The divided blood was allowed to naturally coagulate (25° C., 90 minutes) and then the serum was centrifuged (3000 rpm, 20 minutes, 4° C.) and the amount of thromboxane B2 in the serum was measured by the EIA method.

[2] = system: antigen-induced bronchoconstriction; test: Antigen-induced bronchoconstriction model of guinea pig (Konzett-Rossler method); type: in vivo; conditions: 2 hours after administration, ovalbumin-sensitized guinea pigs
Description: (Pharmacological Activity on Antigen-Induced Bronchoconstriction Model of Guinea Pig)
Guinea pigs sensitized by ovalbumin were used and orally administered with the test compound suspended in 5% gum arabic. The activity for inhibiting antigen-induced bronchoconstriction after 2 hours after administration was measured by the Konzett-Rossler method.
Each of the sensitized guinea pigs (i.e., 5-7 pigs in one group) was anesthesized by 35 mg/kg pentobarbital, a cannula was inserted into the respiratory tract and connected to an artificial respirator, a cannula was inserted into the jugular vein, and treatment was performed by 5 mg/kg suxamethonium and 5 mg/kg mepyramine. Next, the guinea pig was inhaled a nebulized ovalbumin to cause bronchoconstriction and the activity in inhibiting bronchoconstriction was found from the ratio of the amount of overflow volume to the detector to the amount of air blown volume from the artificial respirator.
As the test compound, the present Compound (I) were used, and as the control, the above compound (A) and the thromboxane synthase inhibitor ozagrel hydrochloride (OKY-046) were used.

thromboxane synthase [3] = molecular target: T3, thromboxane synthase (Homo sapiens, UniProt P24557); test: Test of thromboxane synthase inhibitory activity in vitro (thromboxane B2 production, platelet microsomes); type: biochemical; conditions: prostaglandin H2 substrate, read-out: TxSI IC50 (inhibition of production of thromboxane B2)
T3 construct: Human platelet microsomes were used; from tissue; host or cells: human platelet microsomes
T3 sequence (P24557 1-533): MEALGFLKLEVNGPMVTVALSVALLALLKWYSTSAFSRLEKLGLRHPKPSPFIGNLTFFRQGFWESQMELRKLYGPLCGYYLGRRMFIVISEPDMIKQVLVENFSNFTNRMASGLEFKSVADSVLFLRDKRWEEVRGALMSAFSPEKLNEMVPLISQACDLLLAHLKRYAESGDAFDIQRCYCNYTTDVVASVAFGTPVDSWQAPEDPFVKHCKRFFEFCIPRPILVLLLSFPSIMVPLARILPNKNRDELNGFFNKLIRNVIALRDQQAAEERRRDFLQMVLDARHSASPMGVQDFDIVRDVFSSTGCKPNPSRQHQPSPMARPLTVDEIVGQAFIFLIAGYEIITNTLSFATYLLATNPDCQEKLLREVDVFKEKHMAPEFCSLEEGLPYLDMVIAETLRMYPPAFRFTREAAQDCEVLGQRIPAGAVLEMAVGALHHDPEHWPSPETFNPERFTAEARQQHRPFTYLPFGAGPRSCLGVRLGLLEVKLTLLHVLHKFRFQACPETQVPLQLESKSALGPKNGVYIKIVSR
Description: (Test of Thromboxane Synthase Inhibitory Activity in In Vitro)
Human platelet microsomes were used and a test performed using as an indicator the amount of production of the thromboxane A2 stable metabolite thromboxane B2. A buffer solution (20 mM tris-HCl buffer solution, 1 mM EDTA, pH 7.5) containing human platelet microsomes (50 μg protein/ml) and the test compound (final concentration of 10^-6 M) was stirred, then incubated at 0° C. for 30 minutes, followed by adding prostaglandin H2 (100 ng/2 μl ). This was made acidic to stop the reaction, then neutralized with 1M Tris-base, then centrifuged at 3000 rpm for 20 minutes. The amount of the thromboxane B2 in the supernatant was measured by the EIA method (Cayman Co. kit).
(§3) As the test compound, the compound (I) was used for the test.

lipoxygenase = molecular target: T4, lipoxygenase (Rattus norvegicus, UniProt P12527); test: Test of lipoxygenase inhibitory activity in vitro (leukotriene B4 production in polymorphonuclear leukocytes); type: cell-based; conditions: calcium ionophore A-23187, read-out: LTBI IC50 (inhibition of the production of leukotriene B4)
T4 construct: the peritoneal cavities were lavaged and the polymorphonuclear leukocytes were recovered; endogenous in cells; host or cells: peritoneal polymorphonuclear leukocytes of male SD rats (casein-elicited)
T4 sequence (P12527 1-673): T1 sequence (P12527 1-673)
Description: (Test of Lipoxygenase Inhibitory Activity in In Vitro)
Using rat polymorphonuclear leukocytes, a test was conducted using as an indicator the amount of production of leukotriene B4. SD male rats (Japan Clea) were intraperitoneally administered with 12% sodium casein. After 16 hours, the peritoneal cavities were lavaged and the polymorphonuclear leukocytes were recovered. The polymorphonuclear leukocytes thus obtained were suspended in a phosphate buffer (137 mM NaCl, 3 mM KCl, 8 mM Na2 HPO4, 2 mM KH2 PO4) (2.5×10^5 cells/0.4 ml), then the test compound (final concentration 10^-5 M) was added and incubation performed for 10 minutes at 37° C. then a calcium solution (10 mM CaCl2, 0.86% NaCl) 0.1 ml was added and incubation performed for 5 minutes, then 1.25 μl of calcium ionophore (20 μM, A-23187) was added and the reaction started. Five minutes after the addition, 250 μl of methanol was added to stop the reaction. After the reaction was stopped, the result was centrifuged for 20 minutes (4° C., 3000 rpm), then the amount of leukotriene B4 in the supernatant was measured by the EIA method (Cayman Co. kit).
as §3

Row | ED50 (5-lipoxygenase) [mg/kg] | ED50 (thromboxane synthase [1]) [mg/kg] | Compound | Suppression rate of respiratory constriction ([2]; 100 mg/kg oral) [%] | IC50 (thromboxane synthase [3]) [nM] | Suppression rate of respiratory constriction ([2]; 50 mg/kg oral) [%] | IC50 (lipoxygenase) [nM]
1 | 9 | > 10 | NC(=O)N(O)CC1=Cc2cc(OCc3cccnc3)ccc2OC1 [(B)] | – | – | – | –
2 | 1.7 | > 30 | NC(=O)N(O)CC1=Cc2cc(Oc3ccccc3)ccc2OC1 [Compound (A)] | 26 | – | – | –
3 | – | – | O=C(O)/C=C/c1ccc(Cn2ccnc2)cc1 [OKY-046, ozagrel hydrochloride] | 42 | – | – | –

Row | Compound | ED50 (5-lipoxygenase) [mg/kg] | ED50 (thromboxane synthase [1]) [mg/kg] | Suppression rate of respiratory constriction ([2]; 100 mg/kg oral) [%] | IC50 (thromboxane synthase [3]) [nM] | Suppression rate of respiratory constriction ([2]; 50 mg/kg oral) [%] | IC50 (lipoxygenase) [nM]
4 | NC(=O)N(O)CC1=Cc2cc(Cc3cccnc3)ccc2OC1 [Compound (I), N-hydroxy-N-[6-(3-pyridylmethyl)-2H-1-benzopyran-3-ylmethyl]urea] | 1.7 | 1.5 | – | 300 | 75 | 200
